Data taken from patent publication US20220370453A1 (Storm Therapeutics Ltd, priority 2019, published 2022).

Experiments:
BCDIN3D [1] = biological target: T1, BCDIN3D (Homo sapiens, UniProt Q7Z5W3); experiment: BCDIN3D IC50 RFMS (RapidFire) assay with mini-helix; format: biochemical; conditions: mini-helix substrate 0.2 μM, SAM 6 μM, 25 nM enzyme
T1 sequence (Q7Z5W3 1-292): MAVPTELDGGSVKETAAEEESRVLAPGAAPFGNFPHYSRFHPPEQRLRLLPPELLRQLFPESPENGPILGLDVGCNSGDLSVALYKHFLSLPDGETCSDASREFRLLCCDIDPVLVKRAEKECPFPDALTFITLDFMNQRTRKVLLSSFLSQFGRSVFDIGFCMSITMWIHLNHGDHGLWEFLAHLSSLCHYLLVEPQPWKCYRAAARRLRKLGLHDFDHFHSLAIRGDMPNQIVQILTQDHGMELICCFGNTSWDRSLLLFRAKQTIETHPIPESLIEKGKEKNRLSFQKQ
In short: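 SAH formation was measured by RapidFire mass spectrometry with D4- and 13C10-SAH internal standards after TCA quench. Substrates 6 μM SAM and 0.2 μM mini-helix reacted 1 h at 37 °C with 25 nM enzyme, which had been preincubated 10 min with compound (1% DMSO) in Tris pH 8.0 buffer with DTT, EDTA, BSA.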

BCDIN3D [2] = biological target: T1, BCDIN3D; experiment: BCDIN3D InCellPulse thermal stability assay in transfected A549 cells; format: cell-based; conditions: transiently transfected A549 cells, heat shock 58° C. 15 min
In short: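 Thermal stabilisation read-out: after a 15 min 58 °C heat shock, ePL-tagged BCDIN3D in transiently transfected A549 cells (1500/well) was quantified by enzyme-fragment complementation luminescence. Compounds were pre-incubated with cells 1 h at 37 °C, 0.6% DMSO final.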

| IC50 (BCDIN3D [1]) [nM] | IC50 (BCDIN3D [2]) [nM] | Structure (SMILES) |
| --- | --- | --- |
| 6450 | 2720 | Cn1ncc2c(NC(C3CC3)C3CC3)nc(NCC(N)c3ccccc3)nc21 (stereo not shown) [Compound 4.57, N6-(2-amino-2-phenyl-ethyl)-N4-(dicyclopropylmethyl)-1-methyl-pyrazolo[3,4-d]pyrimidine-4,6-diamine] |
| 70.4 | 184 | CC1CC1CNc1nc(NC[C@H](N)c2ccccc2)nc2c1cnn2C (stereo partly drawn) [Compound 4.58, N6-[(2R)-2-amino-2-phenyl-ethyl]-1-methyl-N4-[(2-methylcyclopropyl)methyl]pyrazolo[3,4-d]pyrimidine-4,6-diamine] |
| 109 | 77.5 | Cn1ncc2c(NC(C)(C)C3CC3)nc(NC[C@H](N)c3ccccc3)nc21 [Compound 4.59, N6-[(2R)-2-amino-2-phenyl-ethyl]-N4-(1-cyclopropyl-1-methyl-ethyl)-1-methyl-pyrazolo[3,4-d]pyrimidine-4,6-diamine] |
| 6.1 | 44.4 | Cn1ncc2c(NCC3CC34CC4)nc(NC[C@H](N)c3ccccc3)nc21 (stereo partly drawn) [Compound 4.60, N6-[(2R)-2-amino-2-phenyl-ethyl]-1-methyl-N4-(spiro[2.2]pentan-2-ylmethyl)pyrazolo[3,4-d]pyrimidine-4,6-diamine] |
| 266 | 378 | Cn1ncc2c(NCC3CC3(F)F)nc(NC[C@H](N)c3ccccc3)nc21 (stereo partly drawn) [Compound 4.61, N6-[(2R)-2-amino-2-phenyl-ethyl]-N4-[(2,2-difluorocyclopropyl)methyl]-1-methyl-pyrazolo[3,4-d]pyrimidine-4,6-diamine] |
| 6.1 | 112 | Cn1ncc2c(NCC3CC3(C)C)nc(NC[C@H](N)c3ccccc3)nc21 (stereo partly drawn) [Compound 4.62, N6-[(2R)-2-amino-2-phenyl-ethyl]-N4-[(2,2-dimethylcyclopropyl)methyl]-1-methyl-pyrazolo[3,4-d]pyrimidine-4,6-diamine] |
| 202 | 949 | Cn1ncc2c(NC34CC(C#N)(C3)C4)nc(NCC(N)c3ccccc3)nc21 (stereo not shown) [Compound 4.64, 3-[[6-[(2-amino-2-phenylethyl)amino]-1-methylpyrazolo[3,4-d]pyrimidin-4-yl]amino]bicyclo[1.1.1]pentane-1-carbonitrile] |
| 230 | 616 | Cn1ncc2c(NC34CC(F)(C3)C4)nc(NCC(N)c3ccccc3)nc21 (stereo not shown) [Compound 4.65, N6-(2-amino-2-phenylethyl)-N4-{3-fluorobicyclo[1.1.1]pentan-1-yl}-1-methyl-1H-pyrazolo[3,4-d]pyrimidine-4,6-diamine] |
| 128 | 137 | Cn1ncc2c(NC34CC(C3)C4)nc(NC[C@H](N)c3ccccc3)nc21 [Compound 4.66, N6-[(2R)-2-amino-2-phenyl-ethyl]-N4-(3-bicyclo[1.1.1]pentanyl)-1-methyl-pyrazolo[3,4-d]pyrimidine-4,6-diamine] |
| 179 | 168 | Cn1ncc2c(NC34CC(F)(C3)C4)nc(NC[C@H](N)c3ccccc3)nc21 [Compound 4.67, N6-[(2R)-2-amino-2-phenyl-ethyl]-N4-(3-fluoro-1-bicyclo[1.1.1]pentanyl)-1-methyl-pyrazolo[3,4-d]pyrimidine-4,6-diamine] |
| 1140 | 3240 | Cn1ncc2c(NC3CCC(F)(F)CC3)nc(NCC(N)c3ccccc3)nc21 (stereo not shown) [Compound 4.68, 6-N-(2-amino-2-phenylethyl)-4-N-(4,4-difluorocyclohexyl)-1-methylpyrazolo[3,4-d]pyrimidine-4,6-diamine] |
| 851 | 3140 | Cn1ncc2c(NC3CCOCC3)nc(NC[C@H](N)c3ccccc3)nc21 [Compound 4.69, N6-[(2R)-2-amino-2-phenyl-ethyl]-1-methyl-N4-tetrahydropyran-4-yl-pyrazolo[3,4-d]pyrimidine-4,6-diamine] |
| 1400 | 1200 | Cn1ncc2c(NC(C)(C)CO)nc(NC[C@H](N)c3ccccc3)nc21 [Compound 4.71, 2-[[6-[[(2R)-2-amino-2-phenyl-ethyl]amino]-1-methyl-pyrazolo[3,4-d]pyrimidin-4-yl]amino]-2-methyl-propan-1-ol] |
| 154 | 318 | Cn1ncc2c(NCC(C)(C)C)nc(NC[C@H](N)c3ccccc3)nc21 [Compound 4.72, N6-[(2R)-2-amino-2-phenyl-ethyl]-N4-(2,2-dimethylpropyl)-1-methyl-pyrazolo[3,4-d]pyrimidine-4,6-diamine] |
| 528 | 412 | Cn1ncc2c(NCC(F)F)nc(NC[C@H](N)c3ccccc3)nc21 [Compound 4.73, N6-[(2R)-2-amino-2-phenyl-ethyl]-N4-(2,2-difluoroethyl)-1-methyl-pyrazolo[3,4-d]pyrimidine-4,6-diamine] |
| 252 | 341 | Cn1ncc2c(NCC(C)(F)F)nc(NC[C@H](N)c3ccccc3)nc21 [Compound 4.74, N6-[(2R)-2-amino-2-phenyl-ethyl]-N4-(2,2-difluoropropyl)-1-methyl-pyrazolo[3,4-d]pyrimidine-4,6-diamine] |
| 240 | 711 | Cn1ncc2c(NC(C)(C)C(F)(F)F)nc(NC[C@H](N)c3ccccc3)nc21 [Compound 4.75, N6-[(2R)-2-amino-2-phenyl-ethyl]-1-methyl-N4-(2,2,2-trifluoro-1,1-dimethyl-ethyl)pyrazolo[3,4-d]pyrimidine-4,6-diamine] |
| 136 | 232 | C[C@H](Nc1nc(NC[C@H](N)c2ccccc2)nc2c1cnn2C)C(F)(F)F [Compound 4.76, N6-[(2R)-2-amino-2-phenyl-ethyl]-1-methyl-N4-[(1S)-2,2,2-trifluoro-1-methyl-ethyl]pyrazolo[3,4-d]pyrimidine-4,6-diamine] |
| 2770 | 1970 | Cn1ncc2c(NC3(C)CC3)nc(NC[C@H](N)c3ccccc3)nc21 [Compound 4.77, N6-[(2R)-2-amino-2-phenyl-ethyl]-1-methyl-N4-(1-methylcyclopropyl)pyrazolo[3,4-d]pyrimidine-4,6-diamine] |
| 769 | 379 | Cn1ncc2c(NC3(C(F)(F)F)CC3)nc(NC[C@H](N)c3ccccc3)nc21 [Compound 4.78, N6-[(2R)-2-amino-2-phenyl-ethyl]-1-methyl-N4-[1-(trifluoromethyl)cyclopropyl]pyrazolo[3,4-d]pyrimidine-4,6-diamine] |
| 2300 | 3200 | Cn1ncc2c(NC3(C(C)(C)C)CC3)nc(NC[C@H](N)c3ccccc3)nc21 [Compound 4.79, N6-[(2R)-2-amino-2-phenyl-ethyl]-N4-(1-tert-butylcyclopropyl)-1-methyl-pyrazolo[3,4-d]pyrimidine-4,6-diamine] |
| 656 | 518 | Cn1ncc2c(NC3CC34CC4)nc(NC[C@H](N)c3ccccc3)nc21 (stereo partly drawn) [Compound 4.80, N6-[(2R)-2-amino-2-phenyl-ethyl]-1-methyl-N4-spiro[2.2]pentan-2-yl-pyrazolo[3,4-d]pyrimidine-4,6-diamine] |
| 583 | 625 | Cn1ncc2c(NC3CC(CO)(CCl)C3)nc(NCC(N)c3ccccc3)nc21 (stereo not shown) [Compound 4.81, [3-[[6-[(2-amino-2-phenyl-ethyl)amino]-1-methyl-pyrazolo[3,4-d]pyrimidin-4-yl]amino]-1-(chloromethyl)cyclobutyl]methanol] |
| 25.6 | 40.8 | Cn1ncc2c(NC3CC4(C3)CC(F)(F)C4)nc(NCC(N)c3ccccc3)nc21 (stereo not shown) [Compound 4.82, N6-(2-amino-2-phenyl-ethyl)-N4-(2,2-difluorospiro[3.3]heptan-6-yl)-1-methyl-pyrazolo[3,4-d]pyrimidine-4,6-diamine] |
| 75.5 | 94.4 | Cn1ncc2c(NC3CCC3)nc(NC[C@H](N)c3ccccc3)nc21 [Compound 4.83, N6-[(2R)-2-amino-2-phenyl-ethyl]-N4-cyclobutyl-1-methyl-pyrazolo[3,4-d]pyrimidine-4,6-diamine] |
| 137 | 125 | Cn1ncc2c(NC3(C)CCC3)nc(NC[C@H](N)c3ccccc3)nc21 [Compound 4.84, N6-[(2R)-2-amino-2-phenyl-ethyl]-1-methyl-N4-(1-methylcyclobutyl)pyrazolo[3,4-d]pyrimidine-4,6-diamine] |
| 172 | 267 | Cn1ncc2c(NC3CC(F)(F)C3)nc(NC[C@H](N)c3ccccc3)nc21 [Compound 4.85, N6-[(2R)-2-amino-2-phenyl-ethyl]-N4-(3,3-difluorocyclobutyl)-1-methyl-pyrazolo[3,4-d]pyrimidine-4,6-diamine] |
| 1600 | 1450 | Cn1ncc2c(NC3(C)CC(F)(F)C3)nc(NC[C@H](N)c3ccccc3)nc21 [Compound 4.86, N6-[(2R)-2-amino-2-phenyl-ethyl]-N4-(3,3-difluoro-1-methyl-cyclobutyl)-1-methyl-pyrazolo[3,4-d]pyrimidine-4,6-diamine] |
| 50.7 | 70.9 | CC1CC(Nc2nc(NC[C@H](N)c3ccccc3)nc3c2cnn3C)C1 (stereo partly drawn) [Compound 4.87, N6-[(2R)-2-amino-2-phenyl-ethyl]-1-methyl-N4-(3-methylcyclobutyl)pyrazolo[3,4-d]pyrimidine-4,6-diamine] |
